Experimental findings from ChEMBL document CHEMBL1157204, “Synthesis and structure-activity relationship of histone deacetylase (HDAC) inhibitors with triazole-linked cap group” (Bioorg Med Chem, 2008) are described below.

Structures are written as SMILES.

Assay [1] has as its system DU-145. The assay is described as follows: Viability of human DU145 cells after 72 hrs by trypan blue staining. The assay is classed as functional, cell-based. The note with it: DU-145, 72 h.
In assay [2] the target is Histone deacetylase. The assay can be described thus: Inhibition of human HDAC in HeLa cells by flour de lys assay. It is filed as cell-based.
Assay [3] deals with DU-145. The assay can be described thus: Viability of human DU145 cells after 72 hrs by MTS assay. The assay is classed as functional, cell-based. The note with it: DU-145, 72 h.

Broadly, the EC50 is the concentration that produces a half-maximal response. Consider `O=C(CCCCCCC(=O)Nc1ccccc1)NO` [VORINOSTAT], for which the EC50 in assay [1] is 2120 nM. A word on the IC50: it is the concentration needed to halve the response being measured. A low value points to inhibition by little substance. `COc1ccc(-c2cn(CCCCCC(=O)NO)nn2)cc1` yielded an IC50 in assay [2] of 2.09 nM.

For `O=C(CCCCCn1cc(-c2ccc3ccccc3n2)nn1)NO`, the IC50 in assay [2] was found to be 2.1 nM. Also, the figures for the EC50 in assay [1] and in assay [3] were 2250 nM and 2460 nM, respectively. For the molecule `O=C(CCCCCn1cc(-c2cccs2)nn1)NO`, in assay [2], the half-inhibitory concentration (IC50) is 31.7 nM. For `O=C(CCCCCn1cc(-c2ccc(-c3ccncc3)cc2)nn1)NO`, the IC50 in assay [2] came to 2.3 nM. For the same molecule, the EC50 in assay [1] is 4720 nM; in assay [3], 3070 nM. For `CN(C)c1ccc(-c2cn(CCCCCCC(=O)NO)nn2)cc1`, the IC50 in assay [2] worked out at 106.1 nM. The molecule `O=C(CCCCCn1cc(-c2ccc3cccnc3c2)nn1)NO` showed an IC50 in assay [2] of 151.5 nM. On the same count and under the same terms, to `O=C(CCCCCn1cc(-c2ccncc2)nn1)NO` belongs 112.5 nM; to `O=C(CCCCCCn1cc(-c2ccccn2)nn1)NO`, 23.9 nM. Same read-out and setting: to `COc1ccccc1-c1cn(CCCCCC(=O)NO)nn1` belongs 76 nM. On the same count and under the same terms, for `Cc1cccc(-c2cn(CCCCCC(=O)NO)nn2)c1` the value was 31.9 nM. Consider `COc1ccc2cc(-c3cn(CCCCCCC(=O)NO)nn3)ccc2c1`, for which, in assay [2], the IC50 came to 15.3 nM. Also, the EC50 in assay [1] amounted to 7760 nM; in assay [3], 3990 nM. The molecule `COc1cccc(OC)c1-c1cn(CCCCCC(=O)NO)nn1` came in with an IC50 in assay [2] of 315.9 nM. In assay [2], `O=C(CCCCCn1cc(-c2ccc(-c3ccccc3)cc2)nn1)NO` had an IC50 of 52.4 nM. In the case of `Cc1ccc(-c2cn(CCCCCC(=O)NO)nn2)cc1`, in assay [2], the half-maximal inhibitory concentration (IC50) was 43.4 nM. Molecule `COc1ccc2cc(-c3cn(CCCCCC(=O)NO)nn3)ccc2c1` displayed an IC50 in assay [2] of 1.8 nM. The EC50 in assay [1] worked out at 3950 nM; in assay [3], 2600 nM. The molecule `CN(C)c1ccc(-c2cn(CCCCCC(=O)NO)nn2)cc1` yielded a concentration for half-maximal inhibition (IC50) in assay [2] of 4.3 nM. The molecule `Cc1ccccc1-c1cn(CCCCCC(=O)NO)nn1` registered an IC50 in assay [2] of 17.4 nM. Same read-out and setting: to `COc1cccc(-c2cn(CCCCCC(=O)NO)nn2)c1` belongs 13.9 nM; to `O=C(CCCCCn1cc(-c2ccccc2)nn1)NO`, 14.2 nM. Take `O=C(CCCCCCn1cc(-c2ccc(-c3ccncc3)cc2)nn1)NO`: the IC50 in assay [2] was 16.6 nM. On the same count and under the same terms, for `O=C(CCCCCn1cc(-c2ccccc2-c2ccccc2)nn1)NO` the value was 162.6 nM; for `O=C(CCCCCCn1cc(-c2cccc(-c3ccccc3)c2)nn1)NO`, 5.4 nM. On the same count and under the same terms, for `O=C(CCCCCCn1cc(-c2ccccc2)nn1)NO` the value was 9.6 nM; for `O=C(CCCCCn1cc(-c2cccnc2)nn1)NO`, 287.2 nM; for `O=C(CCCCCn1cc(-c2cccc(-c3ccccc3)c2)nn1)NO`, 1.9 nM.
